Test results from patent publication US20260152504A1, “PYRIMIDINE SGC STIMULATORS” (Tisento Therapeutics Inc., priority 2022, published 2026).

Biological target: T1, sGC (Rattus norvegicus, UniProt P20595)
T1 construct: Rat primary neurons were isolated from timed-pregnant female Sprague-Dawley (SD) rats; endogenous in cells; host or cells: rat primary neurons (Sprague-Dawley)
T1 sequence (P20595 1-619): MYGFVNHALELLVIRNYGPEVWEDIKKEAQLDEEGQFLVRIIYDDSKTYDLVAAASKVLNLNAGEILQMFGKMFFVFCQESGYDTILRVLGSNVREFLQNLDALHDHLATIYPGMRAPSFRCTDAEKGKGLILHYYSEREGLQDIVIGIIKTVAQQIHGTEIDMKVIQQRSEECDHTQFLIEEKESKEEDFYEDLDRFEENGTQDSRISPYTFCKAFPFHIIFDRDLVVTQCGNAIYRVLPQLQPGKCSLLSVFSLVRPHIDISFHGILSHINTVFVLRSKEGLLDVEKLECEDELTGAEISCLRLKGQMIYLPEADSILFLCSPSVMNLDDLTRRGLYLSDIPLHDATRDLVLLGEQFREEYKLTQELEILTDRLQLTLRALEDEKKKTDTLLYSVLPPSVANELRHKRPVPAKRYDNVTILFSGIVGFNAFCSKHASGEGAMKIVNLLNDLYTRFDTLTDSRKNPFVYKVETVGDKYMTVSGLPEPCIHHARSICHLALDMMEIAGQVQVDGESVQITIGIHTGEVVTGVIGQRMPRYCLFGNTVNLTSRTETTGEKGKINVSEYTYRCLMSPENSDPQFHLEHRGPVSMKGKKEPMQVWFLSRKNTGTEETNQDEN
T1 sequence (P19686 1-690 partner): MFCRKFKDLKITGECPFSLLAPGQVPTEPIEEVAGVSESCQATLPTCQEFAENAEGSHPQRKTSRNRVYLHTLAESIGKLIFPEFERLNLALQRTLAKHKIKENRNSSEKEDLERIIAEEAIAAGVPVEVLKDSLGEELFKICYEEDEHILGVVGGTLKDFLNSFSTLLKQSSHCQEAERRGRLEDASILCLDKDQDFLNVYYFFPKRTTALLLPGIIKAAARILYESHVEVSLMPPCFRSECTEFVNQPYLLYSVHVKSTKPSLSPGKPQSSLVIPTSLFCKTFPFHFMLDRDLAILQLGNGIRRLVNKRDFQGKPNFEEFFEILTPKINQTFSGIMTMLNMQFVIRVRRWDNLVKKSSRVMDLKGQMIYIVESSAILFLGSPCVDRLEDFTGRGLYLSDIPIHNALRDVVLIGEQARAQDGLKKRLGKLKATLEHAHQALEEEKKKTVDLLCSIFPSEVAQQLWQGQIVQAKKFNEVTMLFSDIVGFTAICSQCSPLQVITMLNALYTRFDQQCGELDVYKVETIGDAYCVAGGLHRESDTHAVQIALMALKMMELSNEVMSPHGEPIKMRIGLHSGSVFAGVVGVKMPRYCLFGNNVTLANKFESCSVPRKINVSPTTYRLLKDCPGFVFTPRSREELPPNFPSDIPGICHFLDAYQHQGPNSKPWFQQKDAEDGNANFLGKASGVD
Assay: cGMP measurement in rat primary neurons (neuronal-based cell assay)
Conditions: rat primary neurons (Sprague-Dawley); 0.5 mM IBMX; test compound with fixed DETA (Diethylenetriamine NONOate); 20 min at 37° C.; cGMP by CatchPoint kit; read-out: sGC Neuron EC50
Procedure: Example 2: cGMP Measurement in Rat Primary Neurons
Rat primary neurons were isolated from timed-pregnant female Sprague-Dawley (SD) rats, washed once with HBSS with calcium and magnesium and incubated with a solution containing 0.5 mM 3-isobutyl-1-methylxanthine (IBMX) in HBSS (80 μL/well) at 37° C. for 15 min. Next, a 5× stock […] of test compound with a fixed concentration of DETA (Diethylenetriamine NONOate) was added to the wells to make x nM concentration for test compound solutions and a 30 µM concentration for DETA solution, where x was 1 of the following final concentrations: 0.029, 0.114, 0.460, 1.83, 7.32, 29.29, 117.2, 468.8, 1875, 7500 and 30,000 nM. Then, the cells were incubated for 20 min at 37° C. At the end of incubation, 100 μL lysis buffer (Molecular Devices) was added to cells. CatchPoint™ Cyclic-GMP Fluorescent Assay Kit was used with Molecular Devices' ID3 multi-mode plate reading. Sample cGMP concentrations were extrapolated from standard curve using Softmax Pro 7 Software. A well-characterized, potent sGC stimulator was included in all assay runs and used as a positive control.
Test compound (“agonist”) concentrations vs extrapolated cGMP concentrations (“response”) were plotted and analyzed using GraphPad Prism version 9.4.1. Curve fit was used for each dataset; non-linear log(agonist) vs. response-variable slope (four parameters). The EC50 is interpolated from the curve fit and is defined as the concentration at which the compound elicits 50% of its maximal response. When the experiment is carried out more than two times, the geometric mean is reported, otherwise the arithmetic mean is shown. To increase the accuracy of the EC50 calculations, top and bottom parameters were constrained when consistent with the observed data in a given assay run. For instance, in assay runs where the cGMP response values in the absence of test article were consistent across plates, an average across all of these wells was used as a lower constraint in the calculations. In assay runs where the maximal cGMP responses were consistent with that of the positive control, a top constraint equal to the maximal cGMP response of the positive control was applied. If there was significant variability in cGMP response in no compound wells or variation in maximal responses across plates, no constraints were imposed.

Row | SMILES | EC50 [µM]
1 | Cc1cc(F)c(Cc2nc(-c3ncc(F)c(O)n3)cn3c(CO)cnc23)cc1F [Compound I-35, 2-(8-(2,5-difluoro-4-methylbenzyl)-3-(hydroxymethyl)imidazo[1,2-a]pyrazin-6-yl)-5-fluoropyrimidin-4-ol] | 1 to 5
2 | Cc1cc(F)c(Cc2nc(-c3nc(O)c(F)c(CF)n3)cn3ccnc23)cc1F [Compound I-45, 2-(8-(2,5-difluoro-4-methylbenzyl)imidazo[1,2-a]pyrazin-6-yl)-5-fluoro-6-(fluoromethyl)pyrimidin-4-ol] | 0.1 to 1
3 | Cc1cnc2c(Cc3cc(F)c(Cl)cc3F)nc(-c3nc(O)c(F)c(O)n3)cn12 [Compound I-6, 2-(8-(4-chloro-2,5-difluorobenzyl)-3-methylimidazo[1,2-a]pyrazin-6-yl)-5-fluoropyrimidine-4,6-diol] | > 5
4 | COc1cnc2c(Cc3cc(F)c(C)cc3F)nc(-c3ncc(Cl)c(O)n3)cn12 [Compound I-29, 5-chloro-2-{8-[(2,5-difluoro-4-methylphenyl)methyl]-3-methoxyimidazo[1,2-a]pyrazin-6-yl}pyrimidin-4-ol] | 0.1 to 1
5 | N#Cc1cn2cc(-c3ncc(F)c(O)n3)nc(Cc3cc(F)c(F)cc3F)c2n1 [Compound I-3, 6-(5-fluoro-4-hydroxypyrimidin-2-yl)-8-(2,4,5-trifluorobenzyl)imidazo[1,2-a]pyrazine-2-carbonitrile] | ≤ 0.1
6 | CC(=O)c1cnc2c(Cc3cc(F)ccc3F)nc(-c3nc(C)c(F)c(O)n3)cn12 [Compound I-8, 1-(8-(2,5-difluorobenzyl)-6-(5-fluoro-4-hydroxy-6-methylpyrimidin-2-yl)imidazo[1,2-a]pyrazin-3-yl)ethan-1-one] | > 5
7 | COc1cnc2c(Cc3cc(F)c(C#N)cc3C)nc(-c3ncc(F)c(O)n3)cn12 [Compound I-32, 2-fluoro-4-((6-(5-fluoro-4-hydroxypyrimidin-2-yl)-3-methoxyimidazo[1,2-a]pyrazin-8-yl)methyl)-5-methylbenzonitrile] | > 5
8 | COCc1nc(-c2cn3ccnc3c(Cc3cc(F)c(C)cc3F)n2)nc(O)c1F [Compound I-22, 2-(8-(2,5-difluoro-4-methylbenzyl)imidazo[1,2-a]pyrazin-6-yl)-5-fluoro-6-(methoxymethyl)pyrimidin-4-ol] | 0.1 to 1
9 | CCOCc1nc(-c2cn3ncnc3c(Cc3cc(F)c(C)cc3F)n2)nc(O)c1F [Compound I-44, 2-(8-(2,5-difluoro-4-methylbenzyl)-[1,2,4]triazolo[1,5-a]pyrazin-6-yl)-6-(ethoxymethyl)-5-fluoropyrimidin-4-ol] | > 5
10 | Cc1cc(F)c(Cc2nc(-c3ncc(C(C)O)c(O)n3)cn3ccnc23)cc1F (centres unmarked) [Compound I-28, 2-(8-(2,5-difluoro-4-methylbenzyl)imidazo[1,2-a]pyrazin-6-yl)-5-(1-hydroxyethyl)pyrimidin-4-ol] | 0.1 to 1
11 | Cc1cc(F)c(Cc2nc(-c3ncc(CO)c(O)n3)cn3ccnc23)cc1F [Compound I-25, 2-(8-(2,5-difluoro-4-methylbenzyl)imidazo[1,2-a]pyrazin-6-yl)-5-(hydroxymethyl)pyrimidin-4-ol] | 0.1 to 1
12 | CCc1cc(O)nc(-c2cn3ccnc3c(Cc3cc(F)c(C)cc3F)n2)n1 [Compound I-30, 2-{8-[(2,5-difluoro-4-methylphenyl)methyl]imidazo[1,2-a]pyrazin-6-yl}-6-ethylpyrimidin-4-ol] | 1 to 5
13 | COc1cnc2c(Cc3cc(F)c(C)cc3F)nc(-c3ncc(C)c(O)n3)cn12 [Compound I-7, 2-(8-(2,5-difluoro-4-methylbenzyl)-3-methoxyimidazo[1,2-a]pyrazin-6-yl)-5-methylpyrimidin-4-ol] | > 5
14 | CC(=O)c1cnc(-c2cn3ccnc3c(Cc3cc(F)c(C)cc3F)n2)nc1O [Compound I-24, 1-(2-(8-(2,5-difluoro-4-methylbenzyl)imidazo[1,2-a]pyrazin-6-yl)-4-hydroxypyrimidin-5-yl)ethan-1-one] | 0.1 to 1
15 | CSc1cnc2c(Cc3cc(F)c(C)cc3F)nc(-c3nc(O)c(C)c(Br)n3)cn12 [Compound I-12, 6-bromo-2-(8-(2,5-difluoro-4-methylbenzyl)-3-(methylthio)imidazo[1,2-a]pyrazin-6-yl)-5-methylpyrimidin-4-ol] | > 5
16 | COCc1nc(-c2cn3ccnc3c(Cc3cc(F)c(C)cc3F)n2)nc(O)c1OC [Compound I-27, 2-(8-(2,5-difluoro-4-methylbenzyl)imidazo[1,2-a]pyrazin-6-yl)-5-methoxy-6-(methoxymethyl)pyrimidin-4-ol] | > 5
17 | Cc1cc(C#N)c(F)cc1Cc1nc(-c2ncc(F)c(O)n2)cn2c(F)cnc12 [Compound I-4, 2-fluoro-4-((3-fluoro-6-(5-fluoro-4-hydroxypyrimidin-2-yl)imidazo[1,2-a]pyrazin-8-yl)methyl)-5-methylbenzonitrile] | > 5
18 | Cc1cc(F)c(Cc2nc(-c3nc(O)c(F)c(CF)n3)cn3ncnc23)cc1F [Compound I-5, 2-(8-(2,5-difluoro-4-methylbenzyl)-[1,2,4]triazolo[1,5-a]pyrazin-6-yl)-5-fluoro-6-(fluoromethyl)pyrimidin-4-ol] | 1 to 5
19 | Cc1cc(F)c(Cc2nc(-c3nc(O)cc(CCO)n3)cn3ccnc23)cc1F [Compound I-26, 2-(8-(2,5-difluoro-4-methylbenzyl)imidazo[1,2-a]pyrazin-6-yl)-6-(2-hydroxyethyl)pyrimidin-4-ol] | > 5
20 | Cc1cc(F)c(Cc2nc(-c3ncc(C#N)c(O)n3)cn3c(F)cnc23)cc1F [Compound I-17, 2-(8-(2,5-difluoro-4-methylbenzyl)-3-fluoroimidazo[1,2-a]pyrazin-6-yl)-4-hydroxypyrimidine-5-carbonitrile] | ≤ 0.1
21 | CC(=O)c1ccc(Cc2nc(-c3ncc(F)c(O)n3)cn3c(Cl)cnc23)c(F)c1 [Compound I-9, 1-(4-((3-chloro-6-(5-fluoro-4-hydroxypyrimidin-2-yl)imidazo[1,2-a]pyrazin-8-yl)methyl)-3-fluorophenyl)ethan-1-one] | > 5
22 | COc1c(O)nc(-c2cn3ccnc3c(Cc3cc(F)c(C)cc3F)n2)nc1CF [Compound I-21, 2-(8-(2,5-difluoro-4-methylbenzyl)imidazo[1,2-a]pyrazin-6-yl)-6-(fluoromethyl)-5-methoxypyrimidin-4-ol] | 0.1 to 1
23 | Cc1nc(-c2cn3c(C(C)O)cnc3c(Cc3cc(F)ccc3F)n2)nc(O)c1F (centres unmarked) [Compound I-31, 2-(8-(2,5-difluorobenzyl)-3-(1-hydroxyethyl)imidazo[1,2-a]pyrazin-6-yl)-5-fluoro-6-methylpyrimidin-4-ol] | > 5
